Assays:
[1] = test system: LX-2 hepatic stellate cells; assay: TGFβ1-induced fibrogenic gene expression (Col1a1, Acta2, Timp2) in LX-2 hepatic stellate cells, qPCR; format: cell-based, human; settings: LX-2 cells with TGFβ1
Excerpt: Hepatic stellate cells in a healthy liver are in the space of Disse, between the hepatocytes and liver sinusoidal endothelial cells. In response to liver injury hepatic stellate cells become activated, proliferative and contractile, increase production of aSMA, secretion of type I and III collagens and specific MMP and TIMP proteins. LX-2 cells were selected as a model of activated hepatic stellate cells and used to test whether specific amino acid compositions would reduce fibrogenic gene expression induced with TGFβ1.
LX-2 hepatic stellate cells (Millipore) were seeded on day 0 at 1.67E4 cells per well in collagen I coated 96-well microplates (ThermoFisher) in Dulbecco's Modified Eagle Medium (DMEM, Corning) supplemented with 2% heat inactivated fetal bovine serum (HI-FBS, HyClone) and 0.2% Primocin (InVivoGen) and incubated overnight at 37° C., 5% CO2. […] Combinations containing N-acetylcysteine were dosed with 10 mM. Cells were pretreated for 6 hours at 37° C., 5% CO2. After pretreatment, TGFβ1 (R&D Systems) or vehicle was spiked into each well for a final concentration of 5 ng/mL and cells were incubated under this stimulus for a further 12 hours at 37° C., 5% CO2.
After 12 hour incubation, RNA extraction and quantitative PCR was conducted on lysates to determine collagen-1a1 expression normalized to β-actin housekeeping expression using the ΔΔCt method using TaqMan primer probes (Integrated DNA Technologies: Col1A1, Hs.PT.58.15517795; Actb, Hs.PT.39a.22214847; Acta2, Hs.PT.56a.24853961; Timp2, Hs.PT.58.14780594).

[2] = test system: Col1a1 gene expression, primary human hepatic stellate cells; assay: Col1a1 gene expression in TGFβ1-stimulated primary human hepatic stellate cells; format: cell-based; settings: for Col1a1 Fold Expression Relative to Control, Mean: normalized to Gapdh; for Col1a1 gene expression: primary human hepatic stellate cells, three healthy donors, TGFβ1 3 ng/mL 24 h, summary in words
Description: (§1) Primary human hepatic stellate cells were obtained from Samsara Sciences. Cells were grown in Complete HSC Medium to ˜80% confluence in T75 or T150 flasks below passage 10 were seeded into sterile, collagen I coated, 96-well optical plastic microplates (ThermoScientific, 152036) and incubated overnight at 37° C., 5% CO2 in a humidified incubator in DMEM with 2% Fetal Bovine Serum and 1% Antibiotic-Antimycotic. After the overnight incubation, plates are washed and pretreated with medium±single amino acid dropout, 1×HMDB DMEM±supplemental amino acid dose for 10.5 hours. After 10.5 hour pretreatment, the same pretreatment medium supplemented with 3 ng/mL TGFβ1, was applied and incubated for 24 hours at 37° C., 5% CO2. After 24 hour stimulus, supernatant was removed, RNA was extracted and gene expression was evaluated using the ΔΔCq method within each single amino acid dropout and supplementation by normalizing to its own 1×HMDB concentration.

[3] = test system: procollagen Iα1 secretion, primary human hepatic stellate cells; assay: Procollagen Iα1 secretion by TGFβ1-stimulated primary human hepatic stellate cells, ELISA; format: cell-based; settings: for procollagen Iα1 secretion: primary human hepatic stellate cells, three healthy donors, TGFβ1 3 ng/mL 24 h, summary in words
Description: as §1
Human Procollagen 1α1 was measured from the supernatant by ELISA (Human ProCollagen I alpha 1 DuoSet ELISA, R&D Systems) at 1/100 dilution in 1× Reagent Diluent (Reagent Ancillary Kit 2, R&D Systems).
Tables 32, 33, 33-1, 33-2, 33-3, and 33-4 show the fold change in procollagen Iα1 in primary human hepatic stellate cells from three different healthy donors normalized to their respective baseline amino acid conditions. Statistical significance calculated by one-way

[4] = individual amino acid at 1X HMDB derived concentration
[5] = individual amino acid at 50X HMDB derived concentration
[6] = first donor, 66 μM (baseline, reference)
[7] = first donor, 234 μM (baseline, reference)

## CC[C@H](C)[C@H](N)C(=O)O [ILE, isoleucine]
[1]; [4]
  Col1a1 gene expression, mean: 2.020
[1]; [5]
  Col1a1 gene expression, mean: 2.028
[2]; Table 31-4, second donor, 66 μM (baseline, reference)
  Col1a1 Fold Expression Relative to Control, Mean: 1.02 fold
[2]; Table 31-4, second donor, 1328 μM
  Col1a1 Fold Expression Relative to Control, Mean: 0.94 fold
[2]; Table 31-4, second donor, 3320 μM
  Col1a1 Fold Expression Relative to Control, Mean: 0.94 fold
[2]; Table 31-4, second donor, 6639 μM
  Col1a1 Fold Expression Relative to Control, Mean: 1.03 fold
[2]; [6]
  Col1a1 Fold Expression Relative to Control, Mean: 1.01 fold
[2]; first donor, 1328 μM
  Col1a1 Fold Expression Relative to Control, Mean: 1.05 fold
[2]; first donor, 3320 μM
  Col1a1 Fold Expression Relative to Control, Mean: 1.10 fold
[2]; first donor, 6639 μM
  Col1a1 Fold Expression Relative to Control, Mean: 1.11 fold
[2]
  Col1a1 gene expression: did not significantly change
[2]; second donor, 66 μM (baseline, reference)
  Col1a1 Fold Expression Relative to Control, Mean: 1.00 fold
[2]; second donor, 1328 μM
  Col1a1 Fold Expression Relative to Control, Mean: 0.97 fold
[2]; second donor, 3320 μM
  Col1a1 Fold Expression Relative to Control, Mean: 0.99 fold
[2]; second donor, 6639 μM
  Col1a1 Fold Expression Relative to Control, Mean: 1.03 fold
[3]; [6]
  Procollagen Ia1 Secretion (Fold Change of 1X), Mean: 1.0000 fold
[3]; first donor, 1328 μM
  Procollagen Ia1 Secretion (Fold Change of 1X), Mean: 0.9229 fold
[3]; first donor, 3320 μM
  Procollagen Ia1 Secretion (Fold Change of 1X), Mean: 1.1366 fold
[3]; first donor, 6639 μM
  Procollagen Ia1 Secretion (Fold Change of 1X), Mean: 1.2144 fold
[3]
  procollagen Iα1 secretion: significantly increased procollagen Iα1 secretion in two of three donors
[3]; second donor, single amino acid, 66 μM (1X reference)
  Procollagen Ia1 Secretion (Fold Change of 1X), Mean: 1.0000 fold change
[3]; second donor, single amino acid, 1328 μM
  Procollagen Ia1 Secretion (Fold Change of 1X), Mean: 1.4811 fold change
[3]; second donor, single amino acid, 3320 μM
  Procollagen Ia1 Secretion (Fold Change of 1X), Mean: 1.4940 fold change
[3]; second donor, single amino acid, 6639 μM
  Procollagen Ia1 Secretion (Fold Change of 1X), Mean: 1.5423 fold change
[3]; third donor, single amino acid, 66 μM (1X reference)
  Procollagen Ia1 Secretion (Fold Change of 1X), Mean: 1.0000 fold change
[3]; third donor, single amino acid, 1328 μM
  Procollagen Ia1 Secretion (Fold Change of 1X), Mean: 1.2687 fold change
[3]; third donor, single amino acid, 3320 μM
  Procollagen Ia1 Secretion (Fold Change of 1X), Mean: 1.2703 fold change
[3]; third donor, single amino acid, 6639 μM
  Procollagen Ia1 Secretion (Fold Change of 1X), Mean: 1.4465 fold change

## CC(C)[C@H](N)C(=O)O [VAL, valine]
[1]; [4]
  Col1a1 gene expression, mean: 2.093
[1]; [5]
  Col1a1 gene expression, mean: 2.203
[2]; Table 31-4, second donor, 234 μM (baseline, reference)
  Col1a1 Fold Expression Relative to Control, Mean: 1.01 fold
[2]; Table 31-4, second donor, 4684 μM
  Col1a1 Fold Expression Relative to Control, Mean: 1.22 fold
[2]; Table 31-4, second donor, 11710 μM
  Col1a1 Fold Expression Relative to Control, Mean: 1.27 fold
[2]; Table 31-4, second donor, 23420 μM
  Col1a1 Fold Expression Relative to Control, Mean: 1.13 fold
[2]; [7]
  Col1a1 Fold Expression Relative to Control, Mean: 1.00 fold
[2]; first donor, 4684 μM
  Col1a1 Fold Expression Relative to Control, Mean: 1.05 fold
[2]; first donor, 11710 μM
  Col1a1 Fold Expression Relative to Control, Mean: 1.09 fold
[2]; first donor, 23420 μM
  Col1a1 Fold Expression Relative to Control, Mean: 1.00 fold
[2]
  Col1a1 gene expression: did not significantly change
[2]; second donor, 234 μM (baseline, reference)
  Col1a1 Fold Expression Relative to Control, Mean: 1.00 fold
[2]; second donor, 4684 μM
  Col1a1 Fold Expression Relative to Control, Mean: 1.05 fold
[2]; second donor, 11710 μM
  Col1a1 Fold Expression Relative to Control, Mean: 0.98 fold
[2]; second donor, 23420 μM
  Col1a1 Fold Expression Relative to Control, Mean: 1.05 fold
[3]; [7]
  Procollagen Ia1 Secretion (Fold Change of 1X), Mean: 1.0000 fold
[3]; first donor, 4684 μM
  Procollagen Ia1 Secretion (Fold Change of 1X), Mean: 1.1203 fold
[3]; first donor, 11710 μM
  Procollagen Ia1 Secretion (Fold Change of 1X), Mean: 1.2069 fold
[3]; first donor, 23420 μM
  Procollagen Ia1 Secretion (Fold Change of 1X), Mean: 1.2139 fold
[3]
  procollagen Iα1 secretion: significantly increased procollagen Iα1 secretion in only one of two donors
[3]; second donor, single amino acid, 234 μM (1X reference)
  Procollagen Ia1 Secretion (Fold Change of 1X), Mean: 1.0000 fold change
[3]; second donor, single amino acid, 4684 μM
  Procollagen Ia1 Secretion (Fold Change of 1X), Mean: 1.2865 fold change
[3]; second donor, single amino acid, 11710 μM
  Procollagen Ia1 Secretion (Fold Change of 1X), Mean: 1.2877 fold change
[3]; second donor, single amino acid, 23420 μM
  Procollagen Ia1 Secretion (Fold Change of 1X), Mean: 1.3068 fold change
[3]; third donor, single amino acid, 234 μM (1X reference)
  Procollagen Ia1 Secretion (Fold Change of 1X), Mean: 1.0000 fold change
[3]; third donor, single amino acid, 4684 μM
  Procollagen Ia1 Secretion (Fold Change of 1X), Mean: 1.0428 fold change
[3]; third donor, single amino acid, 11710 μM
  Procollagen Ia1 Secretion (Fold Change of 1X), Mean: 1.0498 fold change
[3]; third donor, single amino acid, 23420 μM
  Procollagen Ia1 Secretion (Fold Change of 1X), Mean: 1.1139 fold change

Source: US20210275480A1, “COMPOSITIONS AND METHODS FOR THE REDUCTION OR TREATMENT OF FIBROSIS” (AXCELLA HEALTH INC., priority 2018, published 2021)
